Reference: patent publication US7381433B1, “Compositions containing an extract of a primula denticulata and use thereof” (Johnson & Johnson Consumer Companies, Inc., priority 2007, dated 2008)

System: sebocytes
Assay: In vitro sebocyte lipogenesis assay (Nile red lipid accumulation)
Format: cell-based, human

`CCCCCC1=CC(=O)C=C(OC)C1=O` [Primin, 2-methoxy-6-pentyl-1,4-benzoquinone] showed an Induction of lipogenesis (Primin concentration 0.3 μg/mL) of 17.9%, an Induction of lipogenesis (Primin concentration 1.0 μg/mL) of 21.3% and an Induction of lipogenesis (Primin concentration 3.0 μg/mL) of 41.5%. For the same compound, the “Effect on lipogenesis in sebocytes (in words)” value (summary of Tables 1 and 2) was “has lipogenic activity”.
